Test results from paper PMC12064818, “A general assay platform to study protein pharmacology using ligand-dependent structural dynamics” (Nature Communications, 2025).

molecular target: T1, FLuc-C-HiBiT (Photinus pyralis, UniProt P08659); experiment: biochemical; conditions: enzyme activity, 10 uM ATP; read-out: IC50 or SDR50 (mM) / FLuc E
T1 construct: firefly luciferase with C-terminal HiBiT tag, E. coli expressed
T1 sequence (P08659 whole entry, looked up): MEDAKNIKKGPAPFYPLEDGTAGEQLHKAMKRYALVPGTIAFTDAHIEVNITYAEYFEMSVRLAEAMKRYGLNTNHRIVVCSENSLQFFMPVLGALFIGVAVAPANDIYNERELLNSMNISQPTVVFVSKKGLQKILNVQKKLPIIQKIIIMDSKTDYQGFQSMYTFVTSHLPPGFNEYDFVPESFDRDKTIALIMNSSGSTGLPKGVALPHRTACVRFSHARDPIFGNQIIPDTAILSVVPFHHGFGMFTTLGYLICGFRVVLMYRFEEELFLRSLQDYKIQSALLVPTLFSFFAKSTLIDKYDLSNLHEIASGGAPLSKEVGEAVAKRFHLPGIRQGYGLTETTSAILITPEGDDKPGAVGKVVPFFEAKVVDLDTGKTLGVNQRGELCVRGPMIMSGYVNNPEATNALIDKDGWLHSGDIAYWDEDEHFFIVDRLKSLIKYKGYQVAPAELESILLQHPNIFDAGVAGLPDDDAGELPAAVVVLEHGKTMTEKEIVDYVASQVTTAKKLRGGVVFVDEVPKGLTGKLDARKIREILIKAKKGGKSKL

Row | IC50 | Structure (SMILES)
1 | > 0.03 mM | O=C(Nc1ccccc1-c1nc2ccccc2s1)c1cc(Cl)cc(Cl)c1 [NCGC00135642-01]
2 | 0.00495 mM | Cc1ccc(Nc2ncnc3c2nc2n3CCCC2)c(Br)c1 [NCGC00124653-01]
3 | 0.018 mM | CC(C)Oc1cccc(-c2cccc(COc3cnc4c(ccn4CC(=O)O)c3)c2)c1 [NCGC00418183-01]
4 | 0.00556 mM | CCNc1cc(N2CCC(CCC(=O)O)CC2)ncn1 [NCGC00432807-01]
5 | 0.0124 mM | CN1CCN(c2ccc(-c3cc4c(ccn4C)c(C(=O)NCCN4CCNC4=O)n3)cc2)CC1 [NCGC00411611-01]
6 | > 0.03 mM | CCc1cccc(-n2nnc(-c3nsc(NC(=O)c4cccs4)n3)c2C)c1 [NCGC00129048-01]
7 | 0.00989 mM | CN1c2cc(C(=O)Nc3ccc4c(c3)OCCO4)ccc2C(=O)N2CCCCC21 (stereo not drawn) [NCGC00452420-01]
8 | 0.00495 mM | Cc1nnc(CN(C)c2ccc(-c3nc(-c4cccc(Cl)c4)no3)cn2)o1 [NCGC00427683-01]
9 | 0.0111 mM | CCOc1ccc(-n2nc(CO)c(C(=O)NCc3cccc(OC)c3)n2)cc1 [NCGC00117153-01]
10 | 0.0124 mM | C[C@H](C(=O)NCCN1CCOCC1)C1CC[C@@]2(C)Cc3sc(CSc4ccccc4)nc3[C@@H](C)[C@@H]2[C@H]1O (stereo partly drawn) [NCGC00398276-01]
11 | 0.00989 mM | COc1ccc2cc(C3CN(C(=O)CCc4n[nH]c(C)n4)CCO3)ccc2c1 (stereo not drawn) [NCGC00430617-01]
12 | 0.00286 mM | CC(=O)NC1(C)CN(Cc2ccc(-c3ccc4c(ccn4C)c3)s2)C1 [NCGC00410429-01]
13 | > 0.03 mM | COc1ccc(C2=NOC3(CCN([S+](=O)([O-])c4cccs4)C3)C2)cc1 (stereo not drawn) [NCGC00476604-01]
14 | 0.000881 mM | Brc1ccc(-c2cn3cc(Cc4ccccc4)sc3n2)cc1 [NCGC00102136-01]
15 | 0.007 mM | CCCc1ccc(-c2nc(C3CCOC3)no2)cc1 (stereo not drawn) [NCGC00445403-01]
16 | 0.0124 mM | CN1c2cc(C(=O)Nc3cccc(F)c3)ccc2C(=O)N2CCCCCC21 (stereo not drawn) [NCGC00452183-01]
17 | > 0.03 mM | O=C(O)[C@@H]1CN(Cc2ccccc2)C[C@@H]1C(=O)N1CCc2ccccc21 [NCGC00464394-01]
18 | 0.00624 mM | COc1ccc(C(=O)NC2CCCN(c3cc(-c4ccc(Cl)cc4)n[nH]3)C2)cc1OC (stereo not drawn) [NCGC00437414-01]
19 | 0.018 mM | COc1cc(F)ccc1-c1ccc(COc2ccc3c(cnn3CCC(=O)O)c2)cc1 [NCGC00418071-01]
20 | 0.0111 mM | CCCCC(=O)Nc1cccc(-c2nc3ccccc3s2)c1 [NCGC00119159-01]
21 | > 0.03 mM | Cc1ccc2nc(-c3ccc(NC(=O)c4ccc([S+](C)(=O)[O-])cc4)cc3)sc2c1 [NCGC00134160-01]

Row | IC50 | Structure (SMILES)
22 | > 0.03 mM | Cc1ccc(Cl)cc1-n1ncc2c(N3CCC(C)CC3)ncnc21 [NCGC00138926-01]
23 | > 0.03 mM | O=c1[nH]cnc2c1ncn2[C@H]1CC[C@@H](CO)O1 [NCGC00090691-03]
24 | 0.0014 mM | Cc1ccc(C(=O)Nc2ccc3oc(-c4cccnc4)nc3c2)c(Cl)c1 [NCGC00099674-01]
25 | 0.000881 mM | Cc1ccccc1CCNC(=O)c1ccc2c(c1)nc1n2CCCCC1 [NCGC00133334-01]
26 | 0.018 mM | Cc1ccccc1CN1CC[C@H](c2nc3ccccc3s2)C1 [NCGC00391192-01]
27 | 0.00624 mM | CCCOc1ccccc1C(=O)Nc1ccc(-c2nc3ccc(C)cc3s2)cc1 [NCGC00103054-01]
28 | 0.00556 mM | Cc1c(NC(=O)C(C)(C)C)cccc1-c1nc2ccccc2s1 [NCGC00118970-01]
29 | > 0.03 mM | c1ccc2sc(-c3cc4c(c(OC5CCOC5)c3)OCCN(Cc3cccn3-c3nccs3)C4)nc2c1 (stereo not drawn) [NCGC00240062-01]
30 | 0.0202 mM | Cc1cc(-c2cc3c(cn2)CN(Cc2ccccn2)CCN3)ccn1 [NCGC00411150-01]
31 | 0.0111 mM | CN(Cc1ccccc1)C(=O)[C@H]1C[C@@H](O)[C@H](O)[C@@H]2N=C(Nc3ccc(-n4cccn4)cc3)S[C@@H]21 [NCGC00401585-01]
32 | > 0.03 mM | Nc1nccc(-c2c(-c3ccc(F)cc3)ncn2C2CCNCC2)n1 [NCGC00165900-01]
33 | 0.00351 mM | CCOC(=O)c1ccc(NC(=O)c2nsc3ccccc23)cc1 [NCGC00113675-01]
34 | 0.007 mM | CC(C)(C)n1cc(-c2cc(C(=O)N3C[C@H]4CC[C@H]3C4)c3ccccc3n2)cn1 [NCGC00432050-01]
35 | 0.0111 mM | C[C@@H]1CN(c2cnc3ccccc3n2)CC[C@@]1(O)C1CCC1 [NCGC00441645-01]
36 | 0.0157 mM | CC(=O)N1CCCN(c2ccc(-c3nc(-c4ccccc4F)no3)cn2)CC1 [NCGC00426241-01]
37 | 0.0157 mM | CCCOc1cccc(C(=O)Nc2ccc(-c3nc4ccccc4s3)c(Cl)c2)c1 [NCGC00102006-02]
38 | 0.0124 mM | O=C1OCCN1CCNc1ccc(-c2nc(-c3ccccc3F)no2)cn1 [NCGC00428584-01]
39 | 0.00989 mM | CCOC1CCCN(c2ncnc3c2cnn3-c2ccccc2)C1 (stereo not drawn) [NCGC00616559-01]
40 | 0.007 mM | O=C(CSc1nnc2[nH]c(=O)cc(-c3ccccc3)n12)Nc1ccc(OC(F)(F)F)cc1 [NCGC00136515-01]
41 | 0.0124 mM | O=C(Nc1n[nH]c2cc(-c3ccccc3)ccc12)C1CC1 [NCGC00242141-02]
42 | > 0.03 mM | O=C([C@@H]1C[C@@H](O)[C@H](O)[C@@H]2NC(=S)N(c3ccc(OC(F)(F)F)cc3)[C@@H]21)N1CCCCC1 [NCGC00392138-01]

Row | IC50 | Structure (SMILES)
43 | 0.00313 mM | Cc1ccc(C2=CC(c3ccccc3F)n3c(nc4ccccc43)N2)cc1C (stereo not drawn) [NCGC00140809-01]
44 | 0.00351 mM | Fc1ccc(Cc2cn3cc(-c4ccc(Cl)cc4)nc3s2)cc1 [NCGC00102108-01]
45 | 0.000624 mM | O=C(Nc1cccc(Cl)c1)c1cc(-c2ccc3c(c2)OCCO3)on1 [NCGC00118845-01]
46 | > 0.03 mM | Clc1ccc2c(c1)-n1cc(-c3ccccc3)nc1CO2 [NCGC00164952-01]
47 | 0.000989 mM | Cc1ccc(C(=O)Nc2onc3c2CCCC3)cc1 [NCGC00115902-01]
48 | 0.00556 mM | CCN(c1ncnc2c1cnn2-c1cccc(Cl)c1)C1CCCCC1 [NCGC00139112-01]
49 | > 0.03 mM | CCc1cccc(NCc2ccccc2-c2nnc(-c3ccccc3Cl)o2)c1 [NCGC00107400-01]
50 | 0.00197 mM | Cc1ccc(-c2ncc(NC(=O)c3ccccc3F)cn2)cc1 [NCGC00432887-01]
51 | 0.0124 mM | CCCc1ccc(OCc2ccc(C(=O)Nc3ccccc3C(=O)OC)o2)cc1 [NCGC00101032-01]
52 | 0.0161 mM | C[S+](=O)([O-])CCn1ncc2cc(OCc3cccc(-c4ccc(F)cc4)c3)ccc21 [NCGC00418040-01]
53 | 0.00881 mM | Cc1ccc(CN2C(=O)OC(c3cccc(NC(=O)c4ccc(C)cc4)c3)C2C(=O)NCC(C)C)cc1 (stereo not drawn) [NCGC00475004-01]
54 | 0.00881 mM | O=C(Nc1cccc(-c2nc3ccccc3s2)c1)N1CCC(O)C1 (stereo not drawn) [NCGC00638360-01]
55 | 0.00881 mM | Clc1cccc(-c2nc3ccccc3s2)c1 [NCGC00687703-01]
56 | > 0.03 mM | Nc1nc2c(nc(O)n2[C@H]2C[C@H](O)[C@@H](CO)O2)c(=O)[nH]1 [NCGC00475978-01]
57 | 0.000785 mM | Cc1ccc(-n2ncc3c(N4CCCCC4)ncnc32)cc1Cl [NCGC00139209-01]
58 | 0.0124 mM | COc1cccc(-c2cc3c(=O)n(CCNC(=O)C4CCN(C(C)=O)CC4)ccn3n2)c1 [NCGC00457070-01]
59 | 0.000785 mM | Cc1ccc2nc(-c3ccc(NC(=O)C(F)(F)F)cc3)sc2c1 [NCGC00100068-01]
60 | 0.0007 mM | COc1ccccc1NC(=O)Cn1c(C)ccc(NC(=O)Nc2ccc(C)cc2)c1=O [NCGC00430778-01]
61 | 0.00313 mM | CCOc1cccc2cc(-c3nc(-c4ccccc4C)no3)c(=O)oc12 [NCGC00123322-01]
62 | 0.00279 mM | Cc1ccc(-n2ncc3c(NC4CCCCC4)ncnc32)cc1Cl [NCGC00139149-01]
63 | 0.00989 mM | O=C(Nc1ccc2c(c1)OCCO2)N1CC(c2nc(CCOCC3CC3)no2)C1 [NCGC00464361-01]

Row | IC50 | Structure (SMILES)
64 | 0.00785 mM | Cc1ccc(-c2nc(C(=O)N3CCN(c4ccccn4)CC3)no2)cc1 [NCGC00447133-01]
65 | 0.000495 mM | COc1ccc(CNC(=O)Nc2cccc(-c3ccc(N4CCCCC4)nn3)c2)cc1 [NCGC00427646-01]
66 | > 0.03 mM | CCn1cc(-c2ccc(F)cc2)cc1C(=O)O [NCGC00432651-01]
67 | 0.00176 mM | O=C(NCc1ccc(F)cc1)Nc1cccc(-c2ccc(N3CCOCC3)nn2)c1 [NCGC00427604-01]
68 | 0.00989 mM | COc1cccc(C(=O)Nc2cccc(OCc3cc(=O)n4c5c(sc4n3)CCCC5)c2)c1 [NCGC00111495-01]
69 | 0.00248 mM | COc1cccc(-c2nc3ccc(-c4ccc5c(c4)OCO5)cc3o2)c1OC [NCGC00474498-01]
70 | 0.00556 mM | OC1CCCN(c2ccc(-c3nc(-c4cccc(C(F)(F)F)c4)no3)cn2)C1 (stereo not drawn) [NCGC00441254-01]
71 | 0.007 mM | CN(C)c1cccc(C(=O)NC2CCN(c3cc(-c4ccccc4)n[nH]3)C2)c1 (stereo not drawn) [NCGC00437846-01]
72 | 0.0202 mM | OC(c1nc(Nc2ccc(Oc3ccccc3)cc2)n[nH]1)C1CC1 (stereo not drawn) [NCGC00411906-01]
73 | 0.0161 mM | C[S+](=O)([O-])CCn1ncc2cc(OCc3cccc(-c4cccnc4)c3)ccc21 [NCGC00418034-01]
74 | > 0.03 mM | Clc1cccc(-n2ncc3c(N4CCC(Cc5ccccc5)CC4)ncnc32)c1 [NCGC00139124-01]
75 | 0.00221 mM | Cc1ccc(-c2nnc(SCc3ccccc3C#N)o2)cc1 [NCGC00103157-01]
76 | 0.0111 mM | Cc1ccc(-c2noc(-c3nc(C(C)C)no3)n2)cc1 [NCGC00450102-01]
77 | 0.00624 mM | CCCNC(=O)Cn1c(C)ccc(NC(=O)Nc2ccc(OC)cc2)c1=O [NCGC00430826-01]
78 | 0.0111 mM | COc1cccc(-c2cn3ncsc3n2)c1 [NCGC00117781-01]
79 | > 0.03 mM | COc1ccc(-c2nc3ccccc3s2)cc1NC(=O)COc1ccccc1C [NCGC00103036-01]
80 | > 0.03 mM | COc1ccc(-n2nc3ccc(NC(=O)c4c(OC)cccc4OC)cc3n2)cc1 [NCGC00103168-01]
81 | 0.00624 mM | CN(C)c1cccc(C(=O)NC2CCN(c3cc(-c4ccc(Cl)cc4)n[nH]3)CC2)c1 [NCGC00437038-01]

Row | Structure (SMILES) | IC50
82 | CCOP(=O)(Cc1ccc(-c2nc3ccccc3s2)cc1)OCC [NCGC00538319-01] | 0.0111 mM
83 | CN1CCN(C(=O)COc2ccc(-c3nc4ccccc4s3)cc2)CC1 [NCGC00042506-01] | 0.000495 mM
84 | COc1ccc(-n2cc(C3=CCN(CCN4CCOCC4)CC3)cn2)cc1 [NCGC00432106-01] | 0.00989 mM
